This is an account of results in PubChem BioAssay (NCI).

Several values for one entry are separate records, joined by “and”; a condition that tells them apart may be missing. Equal entries are not always repeated.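 96-well plates; 48 h exposure; 5 concentrations. Endpoints by linear interpolation between flanking doses. Not reached: highest tested concentration assigned. GI50: concentration for 50% inhibition of growth. At the TGI there is no net growth.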

Among the test systems are ACHN renal; SW-620 colon; MDA-MB-435; LOX IMVI melanoma; T-47D breast; HOP-92 NSCLC; HOP-62 NSCLC; MALME-3M melanoma; HT29 colon; A498 renal.
Test in all cases: inhibition of tumour cell growth, NCI panel, 48 h

In the case of `O=c1c(O)c(-c2ccc(O)c(O)c2)oc2cc(O)cc(O)c12`, the GI50 in the assay with ACHN renal is 15.6 µM; with SW-620 colon, 26.7 µM; with MDA-MB-435, 5.08 µM; in the assay with LOX IMVI melanoma, 11.4 µM; in the assay on T-47D breast, 23.8 µM; in the assay with HOP-92 NSCLC it was 6.16 µM. Besides, the GI50 was 15.6 µM in the assay with HOP-62 NSCLC, 62 µM with MALME-3M melanoma, 37.3 µM in the assay with HT29 colon and 7.11 µM in the assay on A498 renal. For the same molecule, the TGI in the assay on ACHN renal is > 100 µM; in the assay with SW-620 colon, > 100 µM and 59.8 µM; in the assay on MDA-MB-435 it was > 100 µM; with LOX IMVI melanoma, > 84.1 µM and 35.9 µM; with T-47D breast, > 100 µM; with HOP-92 NSCLC it was > 74.8 µM. Moreover, the TGI is > 100 µM with HOP-62 NSCLC; > 100 µM with MALME-3M melanoma; > 100 µM in the assay with HT29 colon; 24.2 µM and > 100 µM with A498 renal.
As to `CC(C)CCNCC(O)Cn1c2ccccc2c2ccccc21` (stereo not drawn), the GI50 with ACHN renal is 10.5 µM; in the assay on SW-620 colon, 10.4 µM; with MDA-MB-435, 3.82 µM; in the assay with LOX IMVI melanoma, 5.6 µM; in the assay with T-47D breast it was 3.99 µM; in the assay on HOP-92 NSCLC it was 2.71 µM. For the same molecule, the GI50 in the assay with HOP-62 NSCLC is 15.4 µM; with MALME-3M melanoma it was 7.17 µM; in the assay with HT29 colon, 3.42 µM; with A498 renal it was 9.52 µM. The TGI in the assay on ACHN renal is 23.4 µM; in the assay with SW-620 colon, 24 µM; in the assay on MDA-MB-435 it was 14.8 µM; in the assay with LOX IMVI melanoma it was 18.5 µM; in the assay on T-47D breast, 14.6 µM; in the assay with HOP-92 NSCLC, 18.1 µM. Besides, the TGI in the assay with HOP-62 NSCLC came to 29.7 µM; in the assay on MALME-3M melanoma, 23 µM; in the assay on HT29 colon it was 10.6 µM; in the assay on A498 renal, 22.8 µM.
As for `CC[C@H](CO)Nc1nc(NCc2ccccc2)c2ncn(C(C)C)c2n1`, the GI50 is 16.4 µM with ACHN renal; 49.3 µM in the assay with SW-620 colon; 20.1 µM with MDA-MB-435; 21.7 µM in the assay with T-47D breast; 28.1 µM in the assay on HOP-92 NSCLC; 29.4 µM in the assay with HOP-62 NSCLC. For the same molecule, the results for the GI50 in the assay with HT29 colon and in the assay with A498 renal were 24.3 µM and 30.1 µM, respectively. For the same molecule, the TGI with ACHN renal was > 85.9 µM; with SW-620 colon it was > 100 µM; in the assay on MDA-MB-435, > 73.6 µM; in the assay with LOX IMVI melanoma, > 84.1 µM; with T-47D breast, > 84.2 µM; in the assay with HOP-92 NSCLC it was > 90.7 µM. Also, the TGI in the assay on HOP-62 NSCLC was > 94 µM; in the assay on MALME-3M melanoma, 50 µM; in the assay on HT29 colon, > 100 µM; in the assay with A498 renal, > 88.7 µM.
Consider `Cc1ccc(C(=O)NC2CCC2)cc1-c1ccc(C(=O)NCC2CC2)cc1`, for which the GI50 in the assay with ACHN renal is > 25 µM; with SW-620 colon it was > 25 µM; with MDA-MB-435 it was > 25 µM; with LOX IMVI melanoma, > 25 µM; in the assay with T-47D breast, 12.9 µM; in the assay with HOP-92 NSCLC, > 21.3 µM. The GI50 is > 25 µM in the assay with HOP-62 NSCLC, > 25 µM with MALME-3M melanoma, > 25 µM in the assay with HT29 colon and 25 µM in the assay on A498 renal. Further, the TGI in the assay with ACHN renal, in the assay with SW-620 colon, in the assay with MDA-MB-435, with LOX IMVI melanoma, in the assay with T-47D breast and in the assay on HOP-92 NSCLC was > 25 µM in each case. The TGI in the assay with HOP-62 NSCLC, in the assay on MALME-3M melanoma, in the assay on HT29 colon and in the assay on A498 renal was > 25 µM each time.
Regarding `Cc1[nH]c(=O)nc(Nc2ccc(Cl)cc2)c1C(=O)N1CCN(CCO)CC1`, the GI50 was > 100 µM in the assay with ACHN renal; > 100 µM in the assay with SW-620 colon; > 100 µM in the assay on MDA-MB-435; > 100 µM in the assay with LOX IMVI melanoma; 84.2 µM in the assay with T-47D breast; 28.7 µM with HOP-92 NSCLC. Moreover, the GI50 is 27.2 µM in the assay with HOP-62 NSCLC, 29.9 µM in the assay with MALME-3M melanoma, > 100 µM in the assay with HT29 colon and 42.2 µM in the assay with A498 renal. The TGI was > 100 µM in the assay on ACHN renal; > 100 µM with SW-620 colon; > 100 µM in the assay on MDA-MB-435; > 100 µM in the assay with LOX IMVI melanoma; > 100 µM in the assay on T-47D breast; 71.6 µM in the assay with HOP-92 NSCLC. For the same molecule, the TGI with HOP-62 NSCLC was 77.4 µM; in the assay on MALME-3M melanoma, > 100 µM; in the assay with HT29 colon, > 100 µM; in the assay with A498 renal it was > 100 µM.
On to `COC(=O)Nc1nc2ccc(Oc3cccc(NC(=O)Nc4cc(C(F)(F)F)ccc4F)c3)cc2[nH]1`, for which the GI50 in the assay with ACHN renal is 24.4 µM; with SW-620 colon, 10.3 µM; with MDA-MB-435, 5.78 µM; with LOX IMVI melanoma, 9.08 µM; in the assay on T-47D breast it was 8.64 µM; in the assay on HOP-92 NSCLC, 2.94 µM. The GI50 was 13.3 µM in the assay with HOP-62 NSCLC, 6.04 µM with MALME-3M melanoma, 9.11 µM in the assay with HT29 colon and 9.46 µM in the assay with A498 renal. Also, the TGI in the assay on ACHN renal is > 25 µM; with SW-620 colon, > 25 µM; in the assay with MDA-MB-435, 18.8 µM; with LOX IMVI melanoma it was > 25 µM; with T-47D breast, > 25 µM; in the assay with HOP-92 NSCLC it was > 22.2 µM. The TGI in the assay with HOP-62 NSCLC, in the assay with MALME-3M melanoma, with HT29 colon and in the assay with A498 renal was > 25 µM each time.
For `COc1ccc(/C=C(\C(=O)NCc2cccnc2)S(=O)(=O)c2ccccc2)cc1OC`, the GI50 with ACHN renal was 3.16 µM; in the assay with SW-620 colon, 2.95 µM; in the assay with MDA-MB-435, 2.74 µM; in the assay on LOX IMVI melanoma, 3.09 µM; in the assay on T-47D breast, 2.59 µM; in the assay on HOP-92 NSCLC, 2.59 µM. Moreover, the GI50 in the assay with HOP-62 NSCLC was 3.51 µM; in the assay with MALME-3M melanoma it was 3.06 µM; with HT29 colon it was 3.45 µM; in the assay on A498 renal, 2.78 µM. Moreover, the TGI in the assay on ACHN renal was determined as 11.5 µM; with SW-620 colon, 10.9 µM; in the assay with MDA-MB-435, 10.9 µM; in the assay with LOX IMVI melanoma, 11.8 µM; in the assay on T-47D breast, 10.8 µM; in the assay with HOP-92 NSCLC, 7.33 µM. The TGI was determined as 11.4 µM in the assay on HOP-62 NSCLC, 11.9 µM in the assay on MALME-3M melanoma, 14.8 µM with HT29 colon and 8 µM in the assay with A498 renal.
Turning to `Cc1cnc(CNC(=O)c2c(=O)c3ccc(N4CCCN(C)CC4)nc3n3c2sc2ccccc23)cn1`, the GI50 is 0.305 µM in the assay on ACHN renal; 0.237 µM with SW-620 colon; 5.4 µM in the assay with MDA-MB-435; 0.331 µM with LOX IMVI melanoma; 17.3 µM in the assay on T-47D breast; 16.4 µM in the assay on HOP-92 NSCLC. In addition, the GI50 in the assay on HOP-62 NSCLC was 7.16 µM; in the assay on MALME-3M melanoma, 9.24 µM; in the assay on HT29 colon, 1.43 µM; with A498 renal, 12.2 µM. Further, the TGI in the assay with ACHN renal is 14.9 µM; with SW-620 colon, 3.9 µM; with MDA-MB-435, 21.3 µM; with LOX IMVI melanoma, 2.05 µM; in the assay with T-47D breast it was 45.6 µM; in the assay with HOP-92 NSCLC, 32.2 µM. Further, the TGI is 25.4 µM in the assay on HOP-62 NSCLC, 25.8 µM with MALME-3M melanoma, 19 µM with HT29 colon and 25.2 µM in the assay with A498 renal.
In the case of `CN1CCc2[nH]nc(-c3n[nH]c4c3CN(C)CC4)c2C1`, the TGI with ACHN renal, with SW-620 colon, in the assay on MDA-MB-435, in the assay with LOX IMVI melanoma, in the assay on T-47D breast and in the assay with HOP-92 NSCLC was > 100 µM in each case. Further, the TGI with HOP-62 NSCLC, in the assay with MALME-3M melanoma, in the assay with HT29 colon and in the assay with A498 renal was > 100 µM in each case.
Take `COc1cc(OC)c(C(=O)/C=C/c2cccc(C#N)c2)c(OC)c1`: the GI50 in the assay on ACHN renal is 1.13 µM; in the assay with SW-620 colon, 1.46 µM; in the assay on MDA-MB-435 it was 1.42 µM; with LOX IMVI melanoma, 1.23 µM; with T-47D breast it was 1.17 µM; with HOP-92 NSCLC, 0.701 µM. Besides, the GI50 in the assay on HOP-62 NSCLC was 1.33 µM; with MALME-3M melanoma it was 1.76 µM; with HT29 colon it was 1.69 µM; with A498 renal it was 1.24 µM. Moreover, the TGI turned out to be 4.47 µM with ACHN renal; 5.15 µM with SW-620 colon; 6.38 µM in the assay with MDA-MB-435; 5.18 µM in the assay with LOX IMVI melanoma; 5.53 µM in the assay with T-47D breast; 3.26 µM in the assay on HOP-92 NSCLC. Further, the TGI was 4.55 µM in the assay on HOP-62 NSCLC, 8.13 µM in the assay with MALME-3M melanoma, 5.87 µM with HT29 colon and 3.3 µM with A498 renal.
As to `COc1ccc(C2=CC(c3ccc(OC)cc3Br)N3C=CSC3=N2)cc1` (stereo not drawn), the GI50 is 2.39 µM in the assay with ACHN renal; 2 µM with SW-620 colon; 2.58 µM with MDA-MB-435; 2 µM in the assay on LOX IMVI melanoma; 9.21 µM in the assay on T-47D breast; 5.78 µM in the assay with HOP-92 NSCLC. Moreover, the GI50 is 10.5 µM in the assay on HOP-62 NSCLC, 14 µM with MALME-3M melanoma, 2.09 µM in the assay with HT29 colon and 13.3 µM with A498 renal. The TGI is 5.88 µM in the assay with ACHN renal; 4.79 µM in the assay with SW-620 colon; 7.95 µM in the assay on MDA-MB-435; 4.03 µM with LOX IMVI melanoma; 40.4 µM with T-47D breast; 41.8 µM in the assay with HOP-92 NSCLC. Besides, the TGI in the assay with HOP-62 NSCLC is 24.8 µM; in the assay with MALME-3M melanoma, 32.3 µM; in the assay with HT29 colon, 4.87 µM; in the assay on A498 renal, 32.5 µM.
